23 molecules from EP4711365A1 (Shanghai Hansoh Biomedical Co., Ltd., priority 2023, dated 2024) can be followed below.

Data set [1] deals with T1, human IL-17RA and IL-17A proteins (Homo sapiens, UniProt Q16552).
T1 sequence (Q16552 24-155): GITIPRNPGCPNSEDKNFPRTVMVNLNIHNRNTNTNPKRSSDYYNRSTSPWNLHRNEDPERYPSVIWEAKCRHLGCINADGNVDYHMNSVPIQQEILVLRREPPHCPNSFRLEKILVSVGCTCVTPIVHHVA
The experiment in a line: Competitive ELISA: blocking of binding between human IL-17RA and IL-17A. The following applies: coated IL-17A, IL-17RA 5 nM. The procedure:
Test example 1 Assay for competitive binding effect between compounds of the present invention and human IL-17 receptor for ligand
1. Experimental objective: to quantitatively determine the blocking effect of the compound on the binding between human IL-17RA and IL-17A proteins using competitive ELISA under in vitro conditions. 2. Experimental instruments and reagents: 2.1 Instruments:
2.2 Reagents: 3. Experimental method: IL-17A at 0.0625 µg/mL was coated in a 96-well plate at 4°C overnight at 100 µL per well. The plate was washed with PBST (300 µL/well x 4), and then blocked at 24°C for 2 h by adding 300 µL of ELISA Blocker blocking buffer to each well. The plate was further washed under the same conditions. 80 µL of PBS solution containing 1% BSA and 10 µL of 10× test compound solution were added to each well and mixed uniformly, and then the mixture was incubated at room temperature for 1 hour. After that, 10 µL of IL-17RA solution was added to a final concentration of 5 nM and mixed uniformly, and then the mixture was incubated at 24°C for 1 h. The corresponding concentration and volume of DMSO solution without compounds was added to positive control wells, and 1% BSA solution without IL-17RA was added to negative control wells.
After the plate was washed four times, 100 µL of the anti-Fc tag HRP-conjugated antibody was added, and the mixture was incubated at 37°C for 1 h. After the plate was washed four times, 100 µL of TMB substrate was added to each well, and the mixture was incubated at 37°C in the dark. After colour development was completed, the reaction was terminated by adding 100 µL of stop solution to each well, and the absorbance was measured at wavelengths of 450 nm and 570 nm using a microplate reader.
• 1) Inhibition rate (%): The original data (OD450-OD570) was calculated according to the following formula to obtain the inhibition rate. Inhibition rate% = [(average value of positive control wells - value of sample wells)/(average value of positive control wells - average value of negative control wells)] × 100, where the positive control wells are wells without compounds, and the negative control wells are wells without IL-17RA protein solution. • 2) Curve fitting: Log(inhibitor) vs. response -- Variable slope (four parameters) in GraphPad Prism 8 was used for fitting equation analysis of the compound concentration and the corresponding inhibition rate, and the curve was fitted to obtain the IC50 value of the compound. The fitting calculation equation was Y = Bottom + (Top - Bottom) / (1 + 10^((LogIC50 - X) * HillSlope)).

The test system of data set [2] is Groα secretion by HT-29 cells. The experiment in a line: Inhibition of Groα secretion by HT-29 cells stimulated with IL-17A (ELISA). The format is cell-based, Human. Conditions: Homo sapiens, IL-17A 30 ng/ml, Groα in supernatant. The procedure: Test example 2 Assay for inhibitory effect of compounds of the present invention against Groα secretion by HT-29 cells
Experimental objective: to measure the inhibitory effect of the compounds against Groα secretion by HT-29 cells, thereby evaluating the inhibition of the compounds on IL-17A pathway.
Experimental method: A cell suspension at 50,000 cells/ml was prepared, and 200 µl of the cell suspension was added to each well of a 96-well plate, i.e., 10,000 cells/well. The plate was cultured overnight. In the 96-well V-bottom plate, 5 mM compound solution was serially diluted 3-fold using DMSO, and the compound from each well was diluted 100-fold using a complete culture medium. IL-17A protein (R&D, #BT7955-025/CF) with a stock concentration of 100 µg/ml was diluted 333.33-fold using a complete culture medium. The compound and IL-17A were mixed at a volume ratio of 1:1 and incubated at 37°C for 30 minutes. 50 µl of a mixture of the compound and IL-17A was added to cell wells, and the final concentration of IL-17A protein was 30 ng/ml.
The mixture was incubated in a 37°C, 5% CO2 cell culture incubator for 48 hours. The concentration of Groα in the supernatant was determined by ELISA method using Human Groα Valukin Elisa kit (Biotechne, # VAL139), and the absorbance intensity at 450 nm was measured using a microplate reader (PE, EnVision2105). Data were analysed using GraphPad Prism 8.3.0.
Experimental data processing method: Data were analysed using GraphPad Prism 8.3.0.
Inhibition rate% = [(average value of positive control wells - value of sample wells)/(average value of positive control wells - average value of negative control wells)] × 100%, where the sample wells are wells containing cells plus compounds at different concentration gradients, the positive control wells are wells containing cells plus IL-17A, and the negative control wells are wells containing culture medium plus IL-17A.
Curve fitting: The IC50 value was obtained by curve fitting based on the inhibition rate (%) at each concentration using the log(inhibitor) vs. responseVariable slope (four parameters) in GraphPad Prism 6.0, and the calculation equation was Y = Bottom + (Top-Bottom)/(1+10^((LogIC50-X)*HillSlope)).
(In an ELISA, binding on a coated surface is turned into a signal by an enzyme label.)

The nature of data set [3]: Pharmacokinetic assay in Wistar rats, oral. The following applies: rat, 30 mg/kg.
Protocol: Experimental objective: to study the pharmacokinetic behaviours of the compounds of the present invention in the body (plasma) of Wistar rats as test animals after oral administration at a dose of 30 mg/kg. • 2. Experimental scheme • 2.1 Test drugs: the examples of the present invention, prepared in house. • 2.2 Test animals: Wistar rats (female, 3 rats per group), from Beijing Vital River Laboratory Animal Technology Co., Ltd., with the animal production license no.
Solutol HS15 was melted in a water bath at 50-60°C, and then 50 mL of the melted Solutol HS15 was added to 450 mL of ultrapure water. The mixture was stirred and sonicated to obtain 500 mL of 10% Solutol HS15 solution. The compound was weighed, and according to the total administration volume, 30% PEG solution was first added. The mixture was shaken uniformly and sonicated until a clear solution was obtained. Subsequently, 70% (10% Solutol) in water was added, resulting in a colourless and clear solution with a concentration of 3.0 mg/mL.
2.4 Administration scheme: After overnight fasting, 3 female Wistar rats per group were administered orally (PO) at a dose of 30 mg/kg with an administration volume of 10 mL/kg.
• 1) To 50 uL of plasma sample was added 250 uL of acetonitrile for precipitation, and the mixture was mixed and then centrifuged at 4°C at 4000 rpm for 20 minutes. • 2) The treated supernatant solution was taken and subjected to LC/MS/MS to analyse the concentration of the test compounds. LC/MS/MS analysis instrument: AB Sciex API-4000 Qtrap-Shimadzu Controller-CBM20A.
• Chromatographic column: Waters Xbridge C18 3.5 um 2.1*50 mm • Mobile phase: solution A: 0.1% formic acid in water, and solution B: 0.1% formic acid in acetonitrile • Flow rate: 0.6 mL/min • Elution time: 0-3.5 minutes, with eluents as follows:

pIC50: −log10 of the molar value.

Broadly, the pIC50 is the IC50 on a negative log10 scale, so that one unit is a factor of ten. A lower pIC50 goes with a high IC50. Take `CCc1nonc1C(=O)NC(C(=O)Nc1ncc(C(COC)N2CC(C(F)(F)F)NC2=O)s1)C1CCC(C)CC1` (stereo not shown) [Example 521]: the pIC50 is 8.89 in data set [1] and 8.70 in data set [2] (48 hours).
As to `COCC(c1cnc(NC(=O)C(NC(=O)OC2CC2)C2CCC(C)CC2)s1)N1CC(C(F)(F)F)NC1=O` (stereo not shown) [Example 522], the pIC50 in data set [1] is 8.21.
For the molecule `C[C@H]1CC[C@H]([C@H](NC(=O)OC2CC2)C(=O)Nc2ncc([C@@H](CC3CC3)N3CC(F)(F)CNC3=O)s2)CC1` [Example 524], the pIC50 in data set [1] was 8.44; in data set [2] (48 hours), 8.03.
On the same counts, the results for `CCc1nonc1C(=O)N[C@H](C(=O)Nc1ncc([C@@H](C2CCOCC2)n2cc(Cl)ccc2=O)s1)[C@H]1CC[C@H](C)CC1` [Example 532] are 8.10 and 8.10.
One may read the AUC(0-t) as exposure summed from dosing to a finite time, without extrapolation to infinity. Higher therefore signals high exposure. As usually defined, the Cmax is the maximum level reached in the sampled fluid or tissue. What is called Tmax is the time at which the peak concentration occurs. By half-life is commonly meant the time in which the quantity being followed falls by half. Read a high half-life as slow loss. As for `[2H]C1([2H])NC(=O)N([C@H](COC)c2cnc(NC(=O)[C@@H](NC(=O)OC3CC3)[C@H]3CC[C@H](C)CC3)s2)C([2H])([2H])C1(F)F` [Example 559], the pIC50 in data set [1] was 8.37. Moreover, in data set [3] (plasma), the AUC(0-t) came to 12700 ng·h/mL, the Cmax turned out to be 2190 ng/mL, the Tmax came out at 2 h and the half-life was 2.7 h.
In the case of `COC[C@H](c1cnc(NC(=O)[C@@H](NC(=O)c2nonc2C)[C@H]2CC[C@H](C)CC2)s1)n1cc(Cl)ccc1=O` [Example 569], the pIC50 in data set [1] is 8.30.
`COC[C@H](c1cnc(NC(=O)[C@@H](NC(=O)C2(F)CC2)[C@H]2CC[C@H](C)CC2)s1)N1CC(F)(F)CNC1=O` [Example 592] showed a pIC50 in data set [1] of 8.19.
`CC1CCC([C@H](NC(=O)C2(F)CC2)C(=O)Nc2ncc(C(CN3CCOCC3)N3CC(F)(F)CNC3=O)s2)CC1` (stereo partly shown) [Example 601]: the pIC50 was 8.39 in data set [1] and 8.12 in data set [2] (48 hours).
The molecule `[2H]C1([2H])NC(=O)N([C@H](COC)c2cnc(NC(=O)[C@@H](NC(=O)C3(F)CC3)[C@H]3CC[C@H](C)CC3)s2)C([2H])([2H])C1(F)F` [Example 688, N-((S)-2-((5-((R)-1-(5,5-difluoro-2-carbonyltetrahydropyrimidin-1(2H)-yl-4,4,6,6-d4)-2-methoxyethyl)thiazol-2-yl)amino)-1-((1r,4S)-4-methylcyclohexyl)-2-carbonylethyl)-1-fluorocyclopropane-1-carboxamide] gave a pIC50 in data set [1] of 8.29.
Regarding `C[C@H]1CC[C@H]([C@H](NC(=O)C2(F)CC2)C(=O)Nc2ncc([C@@H](CN3CCO[C@H](CF)C3)N3CC(F)(F)CNC3=O)s2)CC1` [Example 696, N-((S)-2-((5-((R)-1-(5,5-difluoro-2-oxotetrahydropyrimidin-1(2H)-yl)-2-((S)-2-(fluoromethyl)morpholino)ethyl)thiazol-2-yl)amino)-1-((1r,4S)-4-methylcyclohexyl)-2-oxoethyl)-1-fluorocyclopropane-1-carboxamide], the pIC50 in data set [1] was 8.30; in data set [2] (48 hours) it was 8.70.
Take `C[C@H]1CC[C@H]([C@H](NC(=O)C(F)(F)C2CC2)C(=O)Nc2ncc([C@@H](CN3CCO[C@H](CF)C3)N3CC(F)(F)CNC3=O)s2)CC1` [Example 700]: the values for the pIC50 in data set [1] and in data set [2] (48 hours) were 8.47 and 8.59, respectively.
On the same counts, the results for `C[C@H]1CC[C@H]([C@H](NC(=O)C2(F)CC2)C(=O)Nc2ncc([C@@H](CN3CCO[C@@H](CF)C3)N3CC(F)(F)CNC3=O)s2)CC1` [Example 703] are 8.12 and 8.15.
`CC[C@@H]1CN(C[C@H](c2cnc(NC(=O)[C@@H](NC(=O)C3(F)CC3)[C@H]3CC[C@H](C)CC3)s2)N2CC(F)(F)CNC2=O)CCO1` [Example 704]: the pIC50 was 8.31 in data set [1] and 8.19 in data set [2] (48 hours).
On the same counts, the results for `CC1(C)CN(C[C@H](c2cnc(NC(=O)[C@@H](NC(=O)C3(F)CC3)[C@H]3CC[C@H](C)CC3)s2)N2CC(F)(F)CNC2=O)CCO1` [Example 718] are 8.30 and 8.10.
`C[C@H]1CC[C@H]([C@H](NC(=O)C2(F)CC2)C(=O)Nc2ncc([C@@H](CN3CCOC4(CC4)C3)N3CC(F)(F)CNC3=O)s2)CC1` [Example 721] had a pIC50 in data set [1] of 8.40.
As for `CC1(C)COCCN1C[C@H](c1cnc(NC(=O)[C@@H](NC(=O)C2(F)CC2)[C@H]2CC[C@H](C)CC2)s1)N1CC(F)(F)CNC1=O` [Example 723], the pIC50 in data set [1] is 8.30; in data set [2] (48 hours), 8.40.
For the molecule `C[C@@H]1CN(C[C@H](c2cnc(NC(=O)[C@@H](NC(=O)C3(F)CC3)[C@H]3CC[C@H](C)CC3)s2)N2CC(F)(F)CNC2=O)C[C@H](C)O1` [Example 724], the figures for the pIC50 in data set [1] and in data set [2] (48 hours) were 8.22 and 8.40, respectively.
As to `C[C@@H]1CN(C[C@H](c2cnc(NC(=O)[C@@H](NC(=O)C(F)(F)C3CC3)[C@H]3CC[C@H](C)CC3)s2)N2CC(F)(F)CNC2=O)C[C@H](C)O1` [Example 725], the pIC50 was 8.25 in data set [1] and 8.60 in data set [2] (48 hours).
As to `C[C@H]1CN(C[C@H](c2cnc(NC(=O)[C@@H](NC(=O)C3(F)CC3)[C@H]3CC[C@H](C)CC3)s2)N2CC(F)(F)CNC2=O)C[C@H](C)O1` [Example 730], the pIC50 in data set [1] is 8.17.
As for `[2H]C([2H])([2H])C([2H])([2H])n1nccc1C(=O)N[C@H](C(=O)Nc1ncc([C@@H](CN2CCC(C(F)(F)F)CC2)N2CC(F)(F)CCC2=O)s1)[C@H]1CC[C@H](C)CC1` [Example 948], in data set [3] (in vivo), the AUC(0-t) came to 18800 ng·h/mL, the Cmax was found to be 1710 ng/mL, the Tmax came to 4 h and the half-life was 9.3 h. For the same molecule, the pIC50 in data set [2] (HT-29, 48 h) was 8.19.
Turning to `[2H]C([2H])([2H])C([2H])([2H])n1nccc1C(=O)N[C@H](C(=O)Nc1ncc([C@@H](CN2CCC3(CC2)CC3(F)F)N2CC(F)(F)CCC2=O)s1)[C@H]1CC[C@H](C)CC1` [Example 958], in data set [3] (in vivo), the AUC(0-t) came out at 13200 ng·h/mL, the Cmax was 1500 ng/mL, the Tmax was determined as 4 h and the half-life is 9.4 h. The same molecule had a pIC50 in data set [2] (HT-29, 48 h) of 8.64.
On the same counts, the results for `[2H]C([2H])([2H])OC1CCN(CC(c2cnc(NC(=O)C(NC(=O)c3ccnn3C([2H])([2H])C([2H])([2H])[2H])C3CCC(C)CC3)s2)N2CC(F)(F)CCC2=O)CC1F` (stereo not shown) [Example 992] are 24600 ng·h/mL, 4930 ng/mL, 2 h, 2.9 h and 8.46.
On the same counts, the results for `[2H]C([2H])([2H])O[C@@H]1CCN(C[C@H](c2cnc(NC(=O)[C@@H](NC(=O)c3ccnn3C([2H])([2H])C([2H])([2H])[2H])[C@H]3CC[C@H](C)CC3)s2)N2CC(F)(F)CCC2=O)C[C@@H]1F` [Example 994] are 13100 ng·h/mL, 2000 ng/mL, 4 h, 2.4 h and 8.05.
